# Columns and labels:
# NF-kB = NF-kB driven transcription in TNF-α stimulated HaCaT cells; format: cell-based; settings: human keratinocytes (HaCaT), read-out: IC50 of inhibition of NF-kB-driven transcription
# Protocol: (§1) To evaluate the anti-inflammatory activity of the extract according to the present invention, the in vitro effect after exposure to pro-inflammatory stimuli on the expression levels of factors known to be involved in inflammatory processes was evaluated.
# The nuclear transcription factor NF-kB is activated by pro-inflammatory stimuli and activates the transcription of genes that amplify the inflammatory process, such as MMP-9, cytokines and growth factors such as VEGF.
# IL-8 [1] = assay: IL-8 release in TNF-α stimulated HDF cells; format: cell-based; settings: human fibroblasts (HDF)
# Source text: (§2) FIG. 7: effect evaluated on TNF-α stimulated HDF cells (A) on transcription induced by NF-kB and on release of (B) IL8, (C) MMP-9 following exposure to the indicated doses of the composition according to the present invention and, for comparative purposes, (D) on NF-kB-induced transcription and (E) IL8, (F) MMP-9 release following exposure to pure CBD.
# as §1
# (§3) In particular, the following were chosen as inflammation markers: • IL-8, a cytokine secreted by keratinocytes and fibroblasts following inflammation and particularly involved in skin diseases such as psoriasis; • MMP-9, a metalloprotease which degrades the extracellular matrix and which is activated following chronic skin inflammations such as dermatitis and psoriasis; • VEGF, the release of which by keratinocytes leads to the formation of the classic psoriatic plaques in patients suffering from this pathology.
# (§4) FIG. 7 reports the results obtained in human fibroblasts.
# HaCaT cells = assay: MTT cytotoxicity assay on HaCaT cells; format: cell-based, human; settings: 6 or 24 hours (FIG. 4)
# Protocol: (§5) The cytotoxicity tests were performed using the MTT assay, capable of measuring the mitochondrial succinic dehydrogenase enzyme, whose activity indicates cell viability, on human keratinocytes or fibroblasts incubated with the Cannabis sativa extract according to example 2 and with pure CBD. The integrity of the morphology before and after 6 and 24 hour incubation was assessed by light microscopy.
# (§6) HaCaT cells, spontaneously immortalized human keratinocyte line (Boukamp et al., 1988) and normal human dermal fibroblasts (HDF) were cultured in DMEM (Gibco, Life Technologies, Monza, Italy) supplemented with 10% heat inactivated fetal bovine serum (Euroclone SpA, Milan, Italy), L-glutamine (2 mM; Gibco, Life Technologies, Monza, Italy), penicillin (100 U/ml), and streptomycin ([…]; Gibco, Life Technologies, Monza, Italy), at 37° C. in a humidified atmosphere containing 5% CO2. Every 4 days, at 80-90% confluence, the cells were detached using 0.25% trypsin-EDTA (Gibco, Life Technologies, Monza, Italy), counted and placed in a new flask at a density of 1.5×10^6 cells per flask, to allow for growth. For the purpose of the present analyses, the cells were seeded in 24-well plates and incubated with the extract according to the present invention or pure CBD at increasing concentrations. […]
# MMP-9 [2] = assay: MMP-9 release in TNF-α stimulated HDF cells; format: cell-based; settings: human fibroblasts (HDF)
# Source text: as §2, §1, §3, §4
# HDF cells = assay: MTT cytotoxicity assay on HDF cells; format: cell-based, human; settings: 6 or 24 hours (FIG. 3)
# Protocol: as §5, §6
# MMP-9 [3] = assay: MMP-9 secretion in TNF-α stimulated HaCaT cells; format: cell-based; settings: human keratinocytes (HaCaT), TNF-α 10 ng/ml
# Protocol: as §1, §3
# VEGF = VEGF secretion in TNF-α stimulated HaCaT cells; format: cell-based; settings: human keratinocytes (HaCaT), TNF-α 10 ng/ml
# Protocol: as §1, §3
# IL-8 [4] = assay: IL-8 secretion in TNF-α stimulated HaCaT cells; format: cell-based; settings: human keratinocytes (HaCaT), TNF-α 10 ng/ml
# Protocol: as §1, §3
smiles,measurement,setting,value
"C=C(C)[C@@H]1CCC(C)=C[C@H]1c1c(O)cc(CCCCC)cc1O [CBD, cannabidiol]",IC50,NF-kB,2850 nM
same,effect on release of IL-8,IL-8 [1],no effect
same,concentrations showing cytotoxic effects,HaCaT cells,above 5 μM
same,effect on release of MMP-9,MMP-9 [2],no effect
same,concentrations showing cytotoxic effects,HDF cells,above 2.5 μM
same,effect on expression levels of MMP-9,MMP-9 [3],modest
same,effect on expression levels of VEGF,VEGF,modest
same,effect on expression levels of IL-8,IL-8 [4],no effect
